Results published in patent US20240010590A1 (priority 2020, published 2024).

What was measured:
[1] = system: BVDV; assay: Single-detergent treatment of pdFVIII-containing liquid, BVDV inactivation; type: cell-based, bovine viral diarrhea virus; conditions: single detergent 0.1%±0.01%, 23°C±1°C, within 5 minutes
[2] = system: BVDV; assay: Single-detergent treatment of buffer containing HSA, BVDV inactivation; type: cell-based, bovine viral diarrhea virus; conditions: 14°C±1°C; for inactivation kinetics compared with Triton X-100: FIG. 4A, single detergent 0.09%-0.11%; for virus reduction factor (RF): single detergent 0.1%±0.01%, within 5 minutes
[3] = system: BVDV; assay: Single-detergent treatment of IVIG-containing liquid, BVDV inactivation; type: cell-based, bovine viral diarrhea virus; conditions: single detergent 0.1%±0.01%, 17°C±1°C, within 10 minutes
[4] = system: PRV; type: cell-based, pseudorabies virus; conditions: IVIG-containing liquid, 17°C±1°C
[5] = system: X-MuLV; assay: S/D treatment of HSA-containing liquid, X-MuLV inactivation; type: cell-based, xenotropic murine leukemia virus; conditions: S/D mixture with PS80 and TnBP, 0.1% detergent
Experimental: FIG. 2: Virus inactivation efficiency of low concentrations of 4-tert-octylbenzyl alcohol polyethoxylate in S/D treatment of human serum albumin (HSA)-containing liquid at 1° C.±1° C. A three-component mixture was used to give final concentrations of 0.08%-0.1% 4-tert-octylbenzyl alcohol polyethoxylate, 0.02%-0.03% Polysorbate 80, 0.02%-0.03% TnBP (side-by-side comparison with same concentration of Triton X-100). Virus inactivation over time is indicated by the virus reduction factor (RF) for two runs with X-MuLV (A and B, respectively). Virus inactivation of S/D treatment using 4-tert-octylbenzyl alcohol polyethoxylate was compared to virus inactivation of S/D treatment using Triton X-100 (“TX-100”). Filled symbols show values with remaining infectivity, non-filled symbols show reduction factors below the limit of detection.
FIG. 3: Virus inactivation efficiency of low concentrations of 4-tert-octylbenzyl alcohol polyethoxylate in S/D treatment of HSA-containing liquid at 19° C.±1° C. A three-component mixture was used to give final concentrations of 0.08%-0.1% 4-tert-octylbenzyl alcohol polyethoxylate, 0.02%-0.03% Polysorbate 80, 0.02%-0.03% TnBP (side-by-side comparison with same concentration of Triton X-100). Virus inactivation over time is indicated by the virus reduction factor (RF) for two runs with X-MuLV (A and B, respectively). Virus inactivation of S/D treatment using 4-tert-octylbenzyl alcohol polyethoxylate was compared to virus inactivation of S/D treatment using Triton X-100 (“TX-100”). Filled symbols show values with remaining infectivity, non-filled symbols show reduction factors below the limit of detection.
The experiments were performed as described for Example 3 of WO 2019/086463. However, for the S/D treatment an S/D mixture comprising 4-tert-octylbenzyl alcohol polyethoxylate was tested and compared to an S/D mixture comprising Triton X-100. The composition of the S/D mixture comprising Triton X-100 was prepared as described in Example 3 of WO 2019/086463. […]

| Substance | virus reduction factor (RF) [1] | inactivation kinetics compared with Triton X-100 [2] | virus reduction factor (RF) [2] | virus reduction factor (RF) [3] | inactivation kinetics compared with Triton X-100 ([4]; FIG. 1A, S/D treatment, 0.04%-0.06% detergent) | virus reduction factor (RF) ([4]; S/D mixture with PS80 and TnBP, 0.05% w/w detergent, within 1-2 minutes) | virus reduction factor (RF) ([5]; 1°C±1°C, within 10 minutes) | virus reduction factor (RF) ([5]; 19°C±1°C, within 10 minutes) | virus reduction factor (RF) ([5]; 19°C±1°C, within 30 min) |
| --- | --- | --- | --- | --- | --- | --- | --- | --- | --- |
| 4-tert-octylcyclohexyl alcohol polyethoxylate [Triton X-100 reduced] | around 5 | same inactivation kinetics as Triton X-100 | around 5 | around 5 | – | – | – | – | – |
| 4-(1,1,3,3-tetramethylbutyl)phenol, ethoxylated [Triton X-100] | around 5 | – | around 5 | around 5 | – | – | – | – | – |
| n-hexadecyl alcohol polyethoxylate [Brij C10] | – | – | around 5 | – | – | – | – | – | – |
| 4-tert-octylbenzyl alcohol polyethoxylate | around 5 | same inactivation kinetics as Triton X-100 | around 5 | around 5 | identical inactivation kinetics | around 4 | over 2 | over 2 | around 4 |
